Laboratory results as given in the NIST ThermoML archive (doi:10.1016/j.jct.2014.02.016).
± gives the expanded uncertainty stated by the source.

Tests used:
[1] = heat capacity at constant pressure per volume; xn = mol fraction of the nth substance listed; details: 100 kPa, Liquid, DSC Calorimetry, x1 = 0.284
[2] = refractive index (other wavelength) (dimensionless); xn = mol fraction of the nth substance listed; details: 100 kPa, Liquid, Wavelength=632.8 nm, Angle minimization by sell rotation

Structure (SMILES): CCCCCCCCCCC [undecane] + COC(=O)OC
- heat capacity ([1]; 293.3 K): 2050000 ± 110000 J/K/m3
- heat capacity ([1]; 293.4 K): 2009000 ± 110000 J/K/m3
- heat capacity ([1]; 293.5 K): 1982000 ± 110000 J/K/m3
- heat capacity ([1]; 293.6 K): 1953000 ± 100000 J/K/m3
- heat capacity ([1]; 293.8 K): 1939000 ± 100000 J/K/m3
- heat capacity ([1]; 294 K): 1925000 ± 100000 J/K/m3
- heat capacity ([1]; 294.5 K): 1897000 ± 100000 J/K/m3
- heat capacity ([1]; 296 K): 1878000 ± 100000 J/K/m3
- heat capacity ([1]; 297 K): 1848000 ± 99000 J/K/m3
- heat capacity ([1]; 298 K): 1846000 ± 99000 J/K/m3
- heat capacity ([1]; 299 K): 1832000 ± 98000 J/K/m3
- heat capacity ([1]; 300 K): 1824000 ± 97000 J/K/m3
- heat capacity ([1]; 301 K): 1822000 ± 97000 J/K/m3
- heat capacity ([1]; 302 K): 1818000 ± 97000 J/K/m3
- heat capacity ([1]; 303 K): 1818000 ± 97000 J/K/m3
- heat capacity ([1]; 304 K): 1814000 ± 97000 J/K/m3
- heat capacity ([1]; 305 K): 1810000 ± 97000 J/K/m3
- heat capacity ([1]; 306 K): 1806000 ± 96000 J/K/m3
- heat capacity ([1]; 307 K): 1805000 ± 96000 J/K/m3
- heat capacity ([1]; 308 K): 1803000 ± 96000 J/K/m3
- heat capacity ([1]; 309 K): 1801000 ± 96000 J/K/m3
- heat capacity ([1]; 310 K): 1800000 ± 96000 J/K/m3
- heat capacity ([1]; 311 K): 1797000 ± 96000 J/K/m3
- heat capacity ([1]; 312 K): 1796000 ± 96000 J/K/m3
- heat capacity ([1]; 313 K): 1795000 ± 96000 J/K/m3
- heat capacity ([1]; 314 K): 1793000 ± 96000 J/K/m3
- heat capacity ([1]; 315 K): 1792000 ± 96000 J/K/m3
- heat capacity ([1]; 316 K): 1790000 ± 96000 J/K/m3
- heat capacity ([1]; 317 K): 1789000 ± 96000 J/K/m3
- heat capacity ([1]; 318 K): 1788000 ± 95000 J/K/m3
- heat capacity ([1]; 319 K): 1787000 ± 95000 J/K/m3
- heat capacity ([1]; 320.01 K): 1787000 ± 95000 J/K/m3
- heat capacity ([1]; 321 K): 1786000 ± 95000 J/K/m3
- heat capacity ([1]; 322 K): 1785000 ± 95000 J/K/m3
- heat capacity ([1]; 323 K): 1784000 ± 95000 J/K/m3
- heat capacity ([1]; 324.01 K): 1783000 ± 95000 J/K/m3
- heat capacity ([1]; 325 K): 1782000 ± 95000 J/K/m3
- heat capacity ([1]; 326 K): 1782000 ± 95000 J/K/m3
- heat capacity ([1]; 327 K): 1780000 ± 95000 J/K/m3
- heat capacity ([1]; 328.01 K): 1780000 ± 95000 J/K/m3
- heat capacity ([1]; 329 K): 1780000 ± 95000 J/K/m3
- heat capacity ([1]; 330 K): 1779000 ± 95000 J/K/m3
- heat capacity ([1]; 331 K): 1778000 ± 95000 J/K/m3
- heat capacity ([1]; 332 K): 1778000 ± 95000 J/K/m3
- heat capacity ([1]; 333 K): 1777000 ± 95000 J/K/m3
- refractive index ([2]; 283.01 K, x1 = 0.087): 1.3791 ± 0.0003
- refractive index ([2]; 283.01 K, x1 = 0.62): 1.4074 ± 0.0003
- refractive index ([2]; 284.23 K, x1 = 0.094): 1.3791 ± 0.0003
- refractive index ([2]; 284.23 K, x1 = 0.602): 1.4062 ± 0.0003
- refractive index ([2]; 285.47 K, x1 = 0.102): 1.3791 ± 0.0003
- refractive index ([2]; 285.47 K, x1 = 0.58): 1.4048 ± 0.0003
- refractive index ([2]; 286.63 K, x1 = 0.11): 1.3791 ± 0.0003
- refractive index ([2]; 286.63 K, x1 = 0.56): 1.4035 ± 0.0003
- refractive index ([2]; 287.73 K, x1 = 0.118): 1.3792 ± 0.0003
- refractive index ([2]; 287.73 K, x1 = 0.539): 1.4022 ± 0.0003
- refractive index ([2]; 288.79 K, x1 = 0.129): 1.3795 ± 0.0003
- refractive index ([2]; 288.79 K, x1 = 0.515): 1.4008 ± 0.0003
- refractive index ([2]; 289.51 K, x1 = 0.137): 1.3797 ± 0.0003
- refractive index ([2]; 289.51 K, x1 = 0.496): 1.3997 ± 0.0003
- refractive index ([2]; 290.19 K, x1 = 0.147): 1.3801 ± 0.0003
- refractive index ([2]; 290.19 K, x1 = 0.475): 1.3985 ± 0.0003
- refractive index ([2]; 290.77 K, x1 = 0.157): 1.3805 ± 0.0003
- refractive index ([2]; 290.77 K, x1 = 0.46): 1.3976 ± 0.0003
- refractive index ([2]; 291.19 K, x1 = 0.165): 1.3809 ± 0.0003
- refractive index ([2]; 291.19 K, x1 = 0.442): 1.3966 ± 0.0003
- refractive index ([2]; 291.49 K, x1 = 0.173): 1.3813 ± 0.0003
- refractive index ([2]; 291.49 K, x1 = 0.431): 1.396 ± 0.0003
- refractive index ([2]; 291.71 K, x1 = 0.179): 1.3816 ± 0.0003
- refractive index ([2]; 291.71 K, x1 = 0.418): 1.3953 ± 0.0003
- refractive index ([2]; 291.9 K, x1 = 0.186): 1.382 ± 0.0003
- refractive index ([2]; 291.9 K, x1 = 0.409): 1.3948 ± 0.0003
- refractive index ([2]; 292.05 K, x1 = 0.193): 1.3824 ± 0.0003
- refractive index ([2]; 292.05 K, x1 = 0.398): 1.3942 ± 0.0003
- refractive index ([2]; 292.17 K, x1 = 0.198): 1.3827 ± 0.0003
- refractive index ([2]; 292.17 K, x1 = 0.391): 1.3938 ± 0.0003
- refractive index ([2]; 292.25 K, x1 = 0.202): 1.3829 ± 0.0003
- refractive index ([2]; 292.25 K, x1 = 0.383): 1.3934 ± 0.0003
- refractive index ([2]; 292.33 K, x1 = 0.207): 1.3832 ± 0.0003
- refractive index ([2]; 292.33 K, x1 = 0.376): 1.393 ± 0.0003
- refractive index ([2]; 292.39 K, x1 = 0.212): 1.3835 ± 0.0003
- refractive index ([2]; 292.39 K, x1 = 0.371): 1.3927 ± 0.0003
- refractive index ([2]; 292.44 K, x1 = 0.217): 1.3838 ± 0.0003
- refractive index ([2]; 292.44 K, x1 = 0.365): 1.3924 ± 0.0003
- refractive index ([2]; 292.49 K, x1 = 0.22): 1.384 ± 0.0003
- refractive index ([2]; 292.49 K, x1 = 0.36): 1.3921 ± 0.0003
- refractive index ([2]; 292.52 K, x1 = 0.225): 1.3843 ± 0.0003
- refractive index ([2]; 292.52 K, x1 = 0.352): 1.3917 ± 0.0003
- refractive index ([2]; 292.56 K, x1 = 0.228): 1.3845 ± 0.0003
- refractive index ([2]; 292.56 K, x1 = 0.349): 1.3915 ± 0.0003
- refractive index ([2]; 292.59 K, x1 = 0.235): 1.3849 ± 0.0003
- refractive index ([2]; 292.59 K, x1 = 0.341): 1.3911 ± 0.0003
- refractive index ([2]; 292.62 K, x1 = 0.238): 1.3851 ± 0.0003
- refractive index ([2]; 292.62 K, x1 = 0.336): 1.3908 ± 0.0003
- refractive index ([2]; 292.64 K, x1 = 0.243): 1.3854 ± 0.0003
- refractive index ([2]; 292.64 K, x1 = 0.331): 1.3905 ± 0.0003
- refractive index ([2]; 292.65 K, x1 = 0.246): 1.3856 ± 0.0003
- refractive index ([2]; 292.65 K, x1 = 0.327): 1.3903 ± 0.0003
- refractive index ([2]; 292.66 K, x1 = 0.251): 1.3859 ± 0.0003
- refractive index ([2]; 292.66 K, x1 = 0.322): 1.39 ± 0.0003
- refractive index ([2]; 292.67 K, x1 = 0.255): 1.3861 ± 0.0003
- refractive index ([2]; 292.67 K, x1 = 0.258): 1.3863 ± 0.0003
- refractive index ([2]; 292.67 K, x1 = 0.314): 1.3896 ± 0.0003
- refractive index ([2]; 292.67 K, x1 = 0.318): 1.3898 ± 0.0003
- refractive index ([2]; 292.68 K, x1 = 0.261): 1.3865 ± 0.0003
- refractive index ([2]; 292.68 K, x1 = 0.263): 1.3866 ± 0.0003
- refractive index ([2]; 292.68 K, x1 = 0.266): 1.3868 ± 0.0003
- refractive index ([2]; 292.68 K, x1 = 0.304): 1.389 ± 0.0003
- refractive index ([2]; 292.68 K, x1 = 0.307): 1.3892 ± 0.0003
- refractive index ([2]; 292.68 K, x1 = 0.311): 1.3894 ± 0.0003
- refractive index ([2]; 303.3 K, x1 = 0.102): 1.3708 ± 0.0003
- refractive index ([2]; 303.3 K, x1 = 0.2): 1.3776 ± 0.0003
- refractive index ([2]; 303.3 K, x1 = 0.299): 1.3835 ± 0.0003
- refractive index ([2]; 303.3 K, x1 = 0.388): 1.3891 ± 0.0003
- refractive index ([2]; 303.3 K, x1 = 0.5): 1.3932 ± 0.0003
- refractive index ([2]; 303.3 K, x1 = 0.586): 1.3967 ± 0.0003
- refractive index ([2]; 303.3 K, x1 = 0.701): 1.4014 ± 0.0003
- refractive index ([2]; 303.3 K, x1 = 0.793): 1.4041 ± 0.0003
- refractive index ([2]; 303.3 K, x1 = 0.905): 1.4085 ± 0.0003
